Legend:
S. pneumoniae D39V [1] = assay: Bliss interaction score (quartile over a dose matrix) (fitness difference); higher = more antagonism (negative = synergy)
Summary of the method: (§1)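 Each OD595 reading at entry into stationary phase was scaled to the robust mean of the untreated wells on its plate, with a ceiling of 1. These ratios define fitness, and single-drug fitness was inferred from combinations. The Bliss score compares observed fitness with the product-based expectation and is reported as quartiles across all replicate types, technical, biological and donor/recipient.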

S. aureus Newman [2] = assay: as above
Summary of the method: as §1

S. aureus DSM 20231 [3] = assay: as above
Summary of the method: as §1

B. subtilis 168 [4] = assay: as above
Summary of the method: as §1

S. pneumoniae D39V [5] = assay: fitness (endpoint OD595 vs no drug) (fraction); higher = more growth
Summary of the method: (§2)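 Fitness compares growth at the stationary-phase transition with the robust mean of no-drug control wells, as a ratio of optical densities. The ratio is capped at 1. Wells of 384-well plates held 30 µl, or 55 µl for S. pneumoniae, inoculated at OD595 0.01. Readings at OD595 every 30 min for 14 h at 37 °C were corrected against the first reading.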

S. aureus Newman [6] = assay: as above
Summary of the method: as §2

S. aureus DSM 20231 [7] = assay: as above
Summary of the method: as §2

B. subtilis 168 [8] = assay: as above
Summary of the method: as §2
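Throughout, for Bliss interaction score (quartile over a dose matrix): first quartile when negative (synergy) and third quartile when positive (antagonism).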
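Throughout, for fitness (endpoint OD595 vs no drug): OD595 on entry to stationary phase over no-drug wells; at most 1.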

CCCCCCCCCC(=O)N[C@@H](Cc1c[nH]c2ccccc12)C(=O)N[C@H](CC(N)=O)C(=O)N[C@@H](CC(=O)O)C(=O)N[C@@H]1C(=O)NCC(=O)N[C@@H](CCCN)C(=O)N[C@@H](CC(=O)O)C(=O)N[C@H](C)C(=O)N[C@@H](CC(=O)O)C(=O)NCC(=O)N[C@H](CO)C(=O)N[C@@H]([C@H](C)CC(=O)O)C(=O)N[C@@H](CC(=O)c2ccccc2N)C(=O)O[C@@H]1C [Daptomycin] + CC1=C\[C@@H](O)CC(=O)Cc2nc(co2)C(=O)N2CCC=C2C(=O)O[C@H](C(C)C)[C@H](C)/C=C/C(=O)NC\C=C\1 [Virginiamycin M1]
Conditions | Bliss interaction score
B. subtilis 168 [4] | -0.0543
S. aureus DSM 20231 [3] | 0.0655
S. aureus Newman [2] | 0.0243
S. pneumoniae D39V [1] | 0.0768

one replicate
Conditions | fitness
B. subtilis 168 [8], first compound 1 µg/mL, partner 0.0625 µg/mL | 0.702
B. subtilis 168 [8], first compound 1 µg/mL, partner 0.125 µg/mL | 0.698
B. subtilis 168 [8], first compound 1 µg/mL, partner 0.25 µg/mL | 0.765
S. aureus DSM 20231 [7], first compound 0.125 µg/mL, partner 0.0625 µg/mL | 0.898
S. aureus DSM 20231 [7], first compound 0.125 µg/mL, partner 0.125 µg/mL | ≥ 1
S. aureus DSM 20231 [7], first compound 0.125 µg/mL, partner 0.5 µg/mL | 0.906
S. aureus DSM 20231 [7], first compound 0.125 µg/mL, partner 1 µg/mL | 0.887
S. aureus DSM 20231 [7], first compound 0.25 µg/mL, partner 0.0625 µg/mL | 0.855
S. aureus DSM 20231 [7], first compound 0.25 µg/mL, partner 0.125 µg/mL | ≥ 1
S. aureus DSM 20231 [7], first compound 0.25 µg/mL, partner 0.5 µg/mL | 0.92
S. aureus DSM 20231 [7], first compound 0.25 µg/mL, partner 1 µg/mL | 0.838
S. aureus DSM 20231 [7], first compound 0.5 µg/mL, partner 0.5 µg/mL | 0.908
S. aureus DSM 20231 [7], first compound 0.5 µg/mL, partner 1 µg/mL | 0.848
S. aureus Newman [6], first compound 0.5 µg/mL, partner 0.5 µg/mL | 0.894
S. aureus Newman [6], first compound 0.5 µg/mL, partner 1 µg/mL | ≥ 1
S. aureus Newman [6], first compound 0.5 µg/mL, partner 2 µg/mL | 0.882
S. aureus Newman [6], first compound 1 µg/mL, partner 0.5 µg/mL | 0.864
S. aureus Newman [6], first compound 1 µg/mL, partner 1 µg/mL | 0.948
S. aureus Newman [6], first compound 1 µg/mL, partner 2 µg/mL | 0.875
S. aureus Newman [6], first compound 2 µg/mL, partner 0.5 µg/mL | 0.921
S. aureus Newman [6], first compound 2 µg/mL, partner 1 µg/mL | 0.989
S. aureus Newman [6], first compound 2 µg/mL, partner 2 µg/mL | 0.856
S. pneumoniae D39V [5], first compound 1 µg/mL, partner 0.15 µg/mL | 0.892
S. pneumoniae D39V [5], first compound 1 µg/mL, partner 0.3 µg/mL | 0.754
S. pneumoniae D39V [5], first compound 2 µg/mL, partner 0.15 µg/mL | 0.893
S. pneumoniae D39V [5], first compound 2 µg/mL, partner 0.3 µg/mL | 0.84
S. pneumoniae D39V [5], first compound 4 µg/mL, partner 0.15 µg/mL | 0.924
S. pneumoniae D39V [5], first compound 4 µg/mL, partner 0.3 µg/mL | 0.877

fitness
Conditions | first compound 0.125 µg/mL | first compound 0.25 µg/mL | first compound 0.5 µg/mL | first compound 1 µg/mL | first compound 2 µg/mL | first compound 4 µg/mL
B. subtilis 168 [8], partner 0.0625 µg/mL | 0.946 | 0.924 | 0.894 | – | – | –
B. subtilis 168 [8], partner 0.125 µg/mL | 0.92 | 0.931 | 0.862 | – | – | –
B. subtilis 168 [8], partner 0.25 µg/mL | 0.93 | 0.934 | 0.891 | – | – | –
S. aureus DSM 20231 [7], partner 0.0625 µg/mL | – | – | ≥ 1 | ≥ 1 | 0.966 | –
S. aureus DSM 20231 [7], partner 0.125 µg/mL | – | – | ≥ 1 | ≥ 1 | 0.959 | –
S. aureus DSM 20231 [7], partner 0.25 µg/mL | 0.944 | 0.918 | ≥ 1 | ≥ 1 | 0.972 | –
S. aureus Newman [6], partner 0.0625 µg/mL | ≥ 1 | ≥ 1 | 0.981 | – | – | –
S. aureus Newman [6], partner 0.125 µg/mL | ≥ 1 | ≥ 1 | 0.994 | – | – | –
S. aureus Newman [6], partner 0.25 µg/mL | 0.984 | 0.999 | 0.975 | – | – | –
S. pneumoniae D39V [5], partner 0.5 µg/mL | – | – | – | 0.991 | 0.984 | 0.976
S. pneumoniae D39V [5], partner 1 µg/mL | – | – | – | 0.992 | ≥ 1 | 0.997
S. pneumoniae D39V [5], partner 2 µg/mL | – | – | – | 0.909 | 0.927 | 0.919

From the supplement of paper PMC10627819
